Assays:
Assay in all cases: Ceftazidime MIC with fixed concentration of BLI
Format in all cases: cell-based
[1] = test system: AB1054 Acinetobacter baumannii OXA-23; conditions: derivative at 10 μg/mL; AB1054 OXA-23
Procedure: (§1) Next, ceftazidime potentiation activity of several cyclic boronic acid ester derivatives was tested using a larger panel of strains expressing β-lactamase hydrolyzing enzymes. Ceftazidime MICs were determined alone and in the presence of fixed concentrations of various cyclic boronic acid ester derivatives.

[2] = test system: AB1057 Acinetobacter baumannii OXA-58; conditions: derivative at 10 μg/mL; AB1057 OXA-58
Procedure: as §1

[3] = test system: EC1004 Escherichia coli CMY-2; conditions: derivative at 10 μg/mL; EC1004 CMY-2
Procedure: as §1

[4] = test system: EC1006 Escherichia coli FOX-5; conditions: derivative at 10 μg/mL; EC1006 FOX-5
Procedure: as §1

[5] = test system: EC1007 Escherichia coli KPC-3; conditions: derivative at 10 μg/mL; EC1007 KPC-3
Procedure: as §1

[6] = test system: EC1008 Escherichia coli CTX-M3; conditions: derivative at 10 μg/mL
Procedure: as §1

[7] = test system: EC1009 Escherichia coli TEM-10; conditions: derivative at 10 μg/mL; EC1009 TEM-10
Procedure: as §1

[8] = test system: EC1010 Escherichia coli CMY-6; conditions: derivative at 10 μg/mL; EC1010 CMY-6
Procedure: as §1

[9] = test system: EC1011 Escherichia coli TEM-26; conditions: derivative at 10 μg/mL; EC1011 TEM-26
Procedure: as §1

[10] = test system: EC1012 Escherichia coli TEM-12; conditions: derivative at 10 μg/mL; EC1012 TEM-12
Procedure: as §1

[11] = test system: EC1014 Escherichia coli DHA-1; conditions: derivative at 10 μg/mL; EC1014 DHA-1
Procedure: as §1

[12] = test system: ECL1002 Enterobacter cloacae Hyper AmpC expression; conditions: derivative at 10 μg/mL
Procedure: as §1

[13] = test system: KP1004 Klebsiella pneumoniae KPC-2; conditions: derivative at 10 μg/mL; KP1004 KPC-2
Procedure: as §1

[14] = test system: KP1005 Klebsiella pneumoniae CTX-M-14; conditions: derivative at 10 μg/mL; KP1005 CTX-M-14
Procedure: as §1

[15] = test system: KP1007 Klebsiella pneumoniae OXA-10; conditions: derivative at 10 μg/mL; KP1007 OXA-10
Procedure: as §1

[16] = test system: KP1008 Klebsiella pneumoniae KPC-2; conditions: derivative at 10 μg/mL; KP1008 KPC-2
Procedure: as §1

[17] = test system: KP1009 Klebsiella pneumoniae CTX-M-15; conditions: derivative at 10 μg/mL; KP1009 CTX-M-15
Procedure: as §1

[18] = test system: KP1010 Klebsiella pneumoniae SHV-12; conditions: derivative at 10 μg/mL; KP1010 SHV-12
Procedure: as §1

[19] = test system: KX1000 Klebsiella oxytoca OXA-2; conditions: derivative at 10 μg/mL; KX1000 OXA-2
Procedure: as §1

[20] = test system: PAM2005 Pseudomonas aeruginosa ampC; conditions: derivative at 10 μg/mL
Procedure: as §1

[21] = test system: PAM2035 Pseudomonas aeruginosa ampC mexA:tet; conditions: derivative at 10 μg/mL
Procedure: as §1

[22] = test system: ec300 Escherichia coli TEM-3; conditions: derivative at 10 μg/mL; ec300 TEM-3
Procedure: as §1

[23] = test system: ec301 Escherichia coli TEM-6; conditions: derivative at 10 μg/mL; ec301 TEM-6
Procedure: as §1

[24] = test system: ec302 Escherichia coli TEM-10; conditions: derivative at 10 μg/mL; ec302 TEM-10
Procedure: as §1

[25] = test system: ec303 Escherichia coli TEM-12; conditions: derivative at 10 μg/mL; ec303 TEM-12
Procedure: as §1

[26] = test system: ec306 Escherichia coli SHV-2; conditions: derivative at 10 μg/mL; ec306 SHV-2
Procedure: as §1

[27] = test system: ec307 Escherichia coli SHV-4; conditions: derivative at 10 μg/mL; ec307 SHV-4
Procedure: as §1

[28] = test system: ec308 Escherichia coli SHV-5; conditions: derivative at 10 μg/mL; ec308 SHV-5
Procedure: as §1

[29] = test system: ec309 Escherichia coli MIR-1; conditions: derivative at 10 μg/mL; ec309 MIR-1
Procedure: as §1

[30] = test system: ec310 Escherichia coli ACT-1; conditions: derivative at 10 μg/mL; ec310 ACT-1
Procedure: as §1

[31] = test system: pa1063 Pseudomonas aeruginosa GES-1; conditions: derivative at 10 μg/mL; pa1063 GES-1
Procedure: as §1

Row | SMILES | Ceftazidime MIC with cyclic boronic acid ester derivative [1] | Ceftazidime MIC with cyclic boronic acid ester derivative [2] | Ceftazidime MIC with cyclic boronic acid ester derivative [3] | Ceftazidime MIC with cyclic boronic acid ester derivative [4] | Ceftazidime MIC with cyclic boronic acid ester derivative [5] | Ceftazidime MIC with cyclic boronic acid ester derivative [6] | Ceftazidime MIC with cyclic boronic acid ester derivative [7] | Ceftazidime MIC with cyclic boronic acid ester derivative [8] | Ceftazidime MIC with cyclic boronic acid ester derivative [9] | Ceftazidime MIC with cyclic boronic acid ester derivative [10] | Ceftazidime MIC with cyclic boronic acid ester derivative [11] | Ceftazidime MIC with cyclic boronic acid ester derivative [12] | Ceftazidime MIC with cyclic boronic acid ester derivative [13] | Ceftazidime MIC with cyclic boronic acid ester derivative [14] | Ceftazidime MIC with cyclic boronic acid ester derivative [15] | Ceftazidime MIC with cyclic boronic acid ester derivative [16] | Ceftazidime MIC with cyclic boronic acid ester derivative [17] | Ceftazidime MIC with cyclic boronic acid ester derivative [18] | Ceftazidime MIC with cyclic boronic acid ester derivative [19] | Ceftazidime MIC with cyclic boronic acid ester derivative [20] | also measured
1 | O=C(O)CC1CC[C@H](NC(=O)C2CC2)B(O)O1 (stereo partly drawn) [Compound 4, 2-((3R)-3-(cyclopropanecarboxamido)-2-hydroxy-1,2-oxaborinan-6-yl)acetic acid] | Z (MIC of greater than 8 μg/mL) | Z (MIC of greater than 8 μg/mL) | Y (MIC of greater than 1 μg/mL to 8 μg/mL) | Z (MIC of greater than 8 μg/mL) | X (MIC of 1 μg/mL or less) | Y (MIC of greater than 1 μg/mL to 8 μg/mL) | Z (MIC of greater than 8 μg/mL) | Y (MIC of greater than 1 μg/mL to 8 μg/mL) | Z (MIC of greater than 8 μg/mL) | Z (MIC of greater than 8 μg/mL) | Y (MIC of greater than 1 μg/mL to 8 μg/mL) | Y (MIC of greater than 1 μg/mL to 8 μg/mL) | Y (MIC of greater than 1 μg/mL to 8 μg/mL) | Z (MIC of greater than 8 μg/mL) | Z (MIC of greater than 8 μg/mL) | X (MIC of 1 μg/mL or less) | Z (MIC of greater than 8 μg/mL) | Z (MIC of greater than 8 μg/mL) | Y (MIC of greater than 1 μg/mL to 8 μg/mL) | Z (MIC of greater than 8 μg/mL) | Ceftazidime MIC with cyclic boronic acid ester derivative [21]: Z (MIC of greater than 8 μg/mL); Ceftazidime MIC with cyclic boronic acid ester derivative [22]: Z (MIC of greater than 8 μg/mL); Ceftazidime MIC with cyclic boronic acid ester derivative [23]: Z (MIC of greater than 8 μg/mL); Ceftazidime MIC with cyclic boronic acid ester derivative [24]: Z (MIC of greater than 8 μg/mL); Ceftazidime MIC with cyclic boronic acid ester derivative [25]: Z (MIC of greater than 8 μg/mL); Ceftazidime MIC with cyclic boronic acid ester derivative [26]: Z (MIC of greater than 8 μg/mL); Ceftazidime MIC with cyclic boronic acid ester derivative [27]: Z (MIC of greater than 8 μg/mL); Ceftazidime MIC with cyclic boronic acid ester derivative [28]: Z (MIC of greater than 8 μg/mL); Ceftazidime MIC with cyclic boronic acid ester derivative [29]: Y (MIC of greater than 1 μg/mL to 8 μg/mL); Ceftazidime MIC with cyclic boronic acid ester derivative [30]: Y (MIC of greater than 1 μg/mL to 8 μg/mL); Ceftazidime MIC with cyclic boronic acid ester derivative [31]: Z (MIC of greater than 8 μg/mL)
2 | O=C(O)C[C@@H]1CC[C@H](NC(=O)Cc2cccs2)B(O)O1 [Compound 5, 2-((3R,6S)-2-hydroxy-3-(2-(thiophen-2-yl)acetamido)-1,2-oxaborinan-6-yl)acetic acid] | Z (MIC of greater than 8 μg/mL) | Z (MIC of greater than 8 μg/mL) | Y (MIC of greater than 1 μg/mL to 8 μg/mL) | Y (MIC of greater than 1 μg/mL to 8 μg/mL) | X (MIC of 1 μg/mL or less) | Y (MIC of greater than 1 μg/mL to 8 μg/mL) | Z (MIC of greater than 8 μg/mL) | Y (MIC of greater than 1 μg/mL to 8 μg/mL) | Z (MIC of greater than 8 μg/mL) | Y (MIC of greater than 1 μg/mL to 8 μg/mL) | X (MIC of 1 μg/mL or less) | Y (MIC of greater than 1 μg/mL to 8 μg/mL) | Y (MIC of greater than 1 μg/mL to 8 μg/mL) | Z (MIC of greater than 8 μg/mL) | Y (MIC of greater than 1 μg/mL to 8 μg/mL) | X (MIC of 1 μg/mL or less) | Z (MIC of greater than 8 μg/mL) | Y (MIC of greater than 1 μg/mL to 8 μg/mL) | Y (MIC of greater than 1 μg/mL to 8 μg/mL) | Z (MIC of greater than 8 μg/mL) | Ceftazidime MIC with cyclic boronic acid ester derivative [21]: Y (MIC of greater than 1 μg/mL to 8 μg/mL); Ceftazidime MIC with cyclic boronic acid ester derivative [22]: Y (MIC of greater than 1 μg/mL to 8 μg/mL); Ceftazidime MIC with cyclic boronic acid ester derivative [23]: Z (MIC of greater than 8 μg/mL); Ceftazidime MIC with cyclic boronic acid ester derivative [24]: Z (MIC of greater than 8 μg/mL); Ceftazidime MIC with cyclic boronic acid ester derivative [25]: Y (MIC of greater than 1 μg/mL to 8 μg/mL); Ceftazidime MIC with cyclic boronic acid ester derivative [26]: Z (MIC of greater than 8 μg/mL); Ceftazidime MIC with cyclic boronic acid ester derivative [27]: Y (MIC of greater than 1 μg/mL to 8 μg/mL); Ceftazidime MIC with cyclic boronic acid ester derivative [28]: Z (MIC of greater than 8 μg/mL); Ceftazidime MIC with cyclic boronic acid ester derivative [29]: X (MIC of 1 μg/mL or less); Ceftazidime MIC with cyclic boronic acid ester derivative [30]: X (MIC of 1 μg/mL or less); Ceftazidime MIC with cyclic boronic acid ester derivative [31]: Z (MIC of greater than 8 μg/mL)

From patent US11090319B2, “Therapeutic uses of pharmaceutical compositions comprising cyclic boronic acid ester derivatives” (Melinta Subsidiary Corp., priority 2010, dated 2021)
